Reference: US20220312767A1, “PYRIDAZINE COMPOUNDS AND HERBICIDES” (Nippon Soda Co., Ltd., priority 2019, published 2022)

How the values were obtained:
Setaria faberi = assay: Foliage treatment test (Test Example 1), foliage spray; assay type: in vivo; details: 250 g per hectare, three weeks after, fresh grass mass of aerial part vs untreated
Protocol: (§1) POA allylphenyl ether (4.1 parts by mass), POE-POP glycol (1 part by mass), POE sorbitanlaurate (0.8 parts by mass), glycerin (2.6 parts by mass), dimethylformamide (65.9 parts by mass), N-methylpyrolidone (5.1 parts by mass), cyclohexanone (15.4 parts by mass), and aromatic hydrocarbon (5.1 parts by mass) were mixed and dissolved to prepare an emulsion. The compound according to the present invention (4 mg) was dissolved in the emulsion (100 μL) to prepare a test emulsion. The term “POA” means “polyoxyalkylene”, the term “POE” means “polyoxyethylene”, and the term “POP” means “polyoxypropylene”.
(§2) 150 cm^2 pots were filled with soil, and then seeds of Avena sativa, Matricaria chamomilla, Setaria faberi, Digitaria ciliaris, Abutilon theophrasti and Amaranthus retroflexus were sown on the surface layer of each of the pots, respectively, followed by lightly covering with soil. Then, the seeds were grown in a greenhouse. When each plant was grown to obtain a grass height of 2 cm to 4 cm, the above-mentioned test emulsion diluted to obtain a predetermined active ingredient amount was sprayed onto the leaves and stems at a spray volume of 250 L per hectare using a small sprayer.
(§3) Three weeks after, the fresh grass mass at an aerial part on an untreated area or a treated area was measured per weed, and the herbicidal ratio was calculated by the following calculation formula.
(§4) Herbicidal ratio (%)=(the fresh grass mass at an aerial part on untreated area−the fresh grass mass at an aerial part on treated area)/(the fresh grass mass at an aerial part on untreated area)×100

Amaranthus retroflexus [1] = assay: as above; assay type: in vivo; details: 250 g per hectare, three weeks after, fresh grass mass of aerial part vs untreated
Protocol: as §1, §2, §3, §4

Matricaria chamomilla = assay: as above; assay type: in vivo; details: 250 g per hectare, three weeks after, fresh grass mass of aerial part vs untreated
Protocol: as §1, §2, §3, §4

Avena sativa = assay: as above; assay type: in vivo; details: 250 g per hectare, three weeks after, fresh grass mass of aerial part vs untreated
Protocol: as §1, §2, §3, §4

Digitaria ciliaris [2] = assay: as above; assay type: in vivo; details: 250 g per hectare, three weeks after, fresh grass mass of aerial part vs untreated
Protocol: as §1, §2, §3, §4

Amaranthus retroflexus [3] = assay: Soil treatment test (Test Example 2); assay type: in vivo; details: four weeks after
Protocol: (§5) A test emulsion was prepared by the same method as that in Test example 1.
(§6) 70 cm^2 pots were filled with soil, and then seeds of Digitaria ciliaris and Amaranthus retroflexus were sown on the surface layer of each of the pots, respectively, followed by lightly covering with soil. On the next day, the above-mentioned test emulsion was diluted to obtain a predetermined active ingredient amount, and then was sprayed onto the soil surface at a spray volume of 2860 L per hectare using a small sprayer.
(§7) Four weeks after, the fresh grass mass at an aerial part on an untreated area or a treated area was measured per weed, and the herbicidal ratio was calculated by the following calculation formula.
as §4
(§8) The compounds A-1 and A-4 were sprayed at a spray amount of 63 g or 31 g per hectare, respectively.
(§9) In addition, the following compounds (A) to (C) disclosed in Patent Document 1 were sprayed in a similar manner.

Digitaria ciliaris [4] = assay: Soil treatment test (Test Example 2); assay type: in vivo; details: four weeks after
Protocol: as §5, §6, §7, §4, §8, §9

COC(=O)OC(C)Oc1c(-c2ccc(C(F)(F)F)c(NC(=O)C3CC3)c2C)cnn(C)c1=O (stereo not shown) [Compound A-9]
Herbicidal ratio against Setaria faberi (Setaria faberi): 100%
Herbicidal ratio against Amaranthus retroflexus (Amaranthus retroflexus [1]): 100%
Herbicidal ratio against Matricaria chamomilla (Matricaria chamomilla): 100%
Herbicidal ratio against Avena sativa (Avena sativa): 100%

CC(OC(=O)C(C)C)Oc1c(-c2ccc(C(F)(F)F)cc2S(C)(=O)=O)cnn(C)c1=O (stereo not shown) [Compound A-1]
Herbicidal ratio against Setaria faberi (Setaria faberi): 100%
Herbicidal ratio against Amaranthus retroflexus (Amaranthus retroflexus [1]): 100%
Herbicidal ratio against Matricaria chamomilla (Matricaria chamomilla): 100%
Herbicidal ratio against Avena sativa (Avena sativa): 100%
Herbicidal ratio against Digitaria ciliaris (Digitaria ciliaris [2]): 100%
Herbicidal ratio Amaranthus retroflexus (Amaranthus retroflexus [3]; spray amount 31 g/ha): 100%
Herbicidal ratio Amaranthus retroflexus (Amaranthus retroflexus [3]; spray amount 63 g/ha): 100%
Herbicidal ratio Digitaria ciliaris (Digitaria ciliaris [4]; spray amount 31 g/ha): 100%
Herbicidal ratio Digitaria ciliaris (Digitaria ciliaris [4]; spray amount 63 g/ha): 100%

CC(=O)Oc1c(-c2ccc(C(F)(F)F)cc2S(C)(=O)=O)cnn(C)c1=O [(B)]
Herbicidal ratio Amaranthus retroflexus (Amaranthus retroflexus [3]; spray amount 31 g/ha): 0%
Herbicidal ratio Amaranthus retroflexus (Amaranthus retroflexus [3]; spray amount 63 g/ha): 0%
Herbicidal ratio Digitaria ciliaris (Digitaria ciliaris [4]; spray amount 31 g/ha): 0%
Herbicidal ratio Digitaria ciliaris (Digitaria ciliaris [4]; spray amount 63 g/ha): 30%

Cn1ncc(-c2ccc(C(F)(F)F)cc2S(C)(=O)=O)c(O)c1=O [(A)]
Herbicidal ratio Amaranthus retroflexus (Amaranthus retroflexus [3]; spray amount 31 g/ha): 0%
Herbicidal ratio Amaranthus retroflexus (Amaranthus retroflexus [3]; spray amount 63 g/ha): 0%
Herbicidal ratio Digitaria ciliaris (Digitaria ciliaris [4]; spray amount 31 g/ha): 0%
Herbicidal ratio Digitaria ciliaris (Digitaria ciliaris [4]; spray amount 63 g/ha): 0%

COCCOc1c(S(C)(=O)=O)ccc(-c2cnn(C)c(=O)c2OC(C)OC(=O)OC)c1Cl (stereo not shown) [Compound A-8]
Herbicidal ratio against Amaranthus retroflexus (Amaranthus retroflexus [1]): 100%
Herbicidal ratio against Matricaria chamomilla (Matricaria chamomilla): 100%
Herbicidal ratio against Digitaria ciliaris (Digitaria ciliaris [2]): 100%

COC(=O)OC(C)Oc1c(-c2ccc(S(C)(=O)=O)cc2Cl)cnn(C)c1=O (stereo not shown) [Compound A-2]
Herbicidal ratio against Matricaria chamomilla (Matricaria chamomilla): 100%
Herbicidal ratio against Avena sativa (Avena sativa): 100%

COC(=O)OCOc1c(-c2ccc(C(F)(F)F)cc2S(C)(=O)=O)cnn(C)c1=O [Compound A-3]
Herbicidal ratio against Setaria faberi (Setaria faberi): 100%
Herbicidal ratio against Amaranthus retroflexus (Amaranthus retroflexus [1]): 100%
Herbicidal ratio against Matricaria chamomilla (Matricaria chamomilla): 100%
Herbicidal ratio against Avena sativa (Avena sativa): 100%
Herbicidal ratio against Digitaria ciliaris (Digitaria ciliaris [2]): 100%

COC(=O)OC(C)Oc1c(-c2ccc(C(F)(F)F)cc2S(C)(=O)=O)cnn(C)c1=O (stereo not shown) [Compound A-4, methyl (1-((2-methyl-5-(2-(methylsulfonyl)-4-(trifluoromethyl)phenyl)-3-oxo-2,3-dihydropyridazin-4-yl)oxy)ethyl) carbonate]
melting point: 173 to 176 °C
Herbicidal ratio against Amaranthus retroflexus (Amaranthus retroflexus [1]): 100%
Herbicidal ratio against Matricaria chamomilla (Matricaria chamomilla): 100%
Herbicidal ratio against Avena sativa (Avena sativa): 100%
Herbicidal ratio against Digitaria ciliaris (Digitaria ciliaris [2]): 100%
Herbicidal ratio Amaranthus retroflexus (Amaranthus retroflexus [3]; spray amount 63 g/ha): 100%
Herbicidal ratio Digitaria ciliaris (Digitaria ciliaris [4]; spray amount 63 g/ha): 100%

Cc1ccc(S(=O)(=O)Oc2c(-c3ccc(C(F)(F)F)cc3S(C)(=O)=O)cnn(C)c2=O)cc1 [(C)]
Herbicidal ratio Amaranthus retroflexus (Amaranthus retroflexus [3]; spray amount 31 g/ha): 0%
Herbicidal ratio Amaranthus retroflexus (Amaranthus retroflexus [3]; spray amount 63 g/ha): 0%
Herbicidal ratio Digitaria ciliaris (Digitaria ciliaris [4]; spray amount 31 g/ha): 40%
Herbicidal ratio Digitaria ciliaris (Digitaria ciliaris [4]; spray amount 63 g/ha): 70%

COC(=O)OC(C)Oc1c(-c2ccc(S(C)(=O)=O)c(C3=NOCC3)c2Cl)cnn(C)c1=O (stereo not shown) [Compound A-7]
Herbicidal ratio against Setaria faberi (Setaria faberi): 100%
Herbicidal ratio against Amaranthus retroflexus (Amaranthus retroflexus [1]): 100%
Herbicidal ratio against Matricaria chamomilla (Matricaria chamomilla): 100%
Herbicidal ratio against Avena sativa (Avena sativa): 100%
Herbicidal ratio against Digitaria ciliaris (Digitaria ciliaris [2]): 100%

CC(C)C(=O)OCOc1c(-c2ccc(C(F)(F)F)cc2S(C)(=O)=O)cnn(C)c1=O [Compound A-5]
Herbicidal ratio against Setaria faberi (Setaria faberi): 100%
Herbicidal ratio against Amaranthus retroflexus (Amaranthus retroflexus [1]): 100%
Herbicidal ratio against Matricaria chamomilla (Matricaria chamomilla): 100%
Herbicidal ratio against Avena sativa (Avena sativa): 100%
Herbicidal ratio against Digitaria ciliaris (Digitaria ciliaris [2]): 100%
